According to article PMC8920929 (The Journal of Biological Chemistry, 2022):
Positions count from the first letter of the chain named.

Tests used:
human TRPV3 = biological target: T1, human TRPV3 (Homo sapiens, UniProt Q8NET8); experiment: Inside-out single channel recordings of TRPV3; assay type: biochemical
T1 sequence (Q8NET8 1-790): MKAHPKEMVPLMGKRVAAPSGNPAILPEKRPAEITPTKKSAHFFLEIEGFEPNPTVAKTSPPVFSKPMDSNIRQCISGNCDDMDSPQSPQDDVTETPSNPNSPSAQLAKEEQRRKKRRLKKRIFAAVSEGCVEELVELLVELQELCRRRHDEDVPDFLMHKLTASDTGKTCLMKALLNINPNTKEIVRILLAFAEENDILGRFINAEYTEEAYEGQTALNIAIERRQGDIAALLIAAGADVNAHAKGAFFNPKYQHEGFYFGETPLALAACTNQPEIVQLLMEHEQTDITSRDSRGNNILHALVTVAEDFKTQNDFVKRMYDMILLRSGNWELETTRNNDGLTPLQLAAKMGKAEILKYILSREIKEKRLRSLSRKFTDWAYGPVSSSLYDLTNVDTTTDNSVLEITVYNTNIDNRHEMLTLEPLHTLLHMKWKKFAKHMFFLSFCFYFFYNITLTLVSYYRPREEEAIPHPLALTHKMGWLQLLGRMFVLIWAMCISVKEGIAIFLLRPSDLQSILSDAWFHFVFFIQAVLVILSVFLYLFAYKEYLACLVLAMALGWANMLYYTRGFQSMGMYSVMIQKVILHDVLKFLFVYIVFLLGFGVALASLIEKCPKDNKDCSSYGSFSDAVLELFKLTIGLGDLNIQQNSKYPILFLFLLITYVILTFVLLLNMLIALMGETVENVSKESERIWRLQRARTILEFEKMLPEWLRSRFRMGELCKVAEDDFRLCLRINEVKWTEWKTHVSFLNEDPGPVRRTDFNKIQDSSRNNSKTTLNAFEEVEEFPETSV

TRPV3-I505A = biological target: T2, TRPV3-I505A (Homo sapiens, UniProt Q8NET8, I505A); experiment: Whole-cell and single-channel recordings of the TRPV3-I505A mutant; assay type: cell-based
T2 sequence (Q8NET8 1-790 I505A): T1 sequence (Q8NET8 1-790) with I505A

TRPV3-L508V = biological target: T3, TRPV3-L508V (Homo sapiens, UniProt Q8NET8, L508V); experiment: Whole-cell and single-channel recordings of the TRPV3-L508V mutant; assay type: cell-based; settings: carvacrol 0.3-3 mM
T3 sequence (Q8NET8 1-790 L508V): T1 sequence (Q8NET8 1-790) with L508V

mice = settings: mice, but not TRPV3-KO mice; ref [33], [34]; cited from earlier work
[1] = +80 mV, carvacrol 300 μM or 2-APB 50 μM alone

single-channel open frequency (Freq) (human TRPV3; [1]): 59.21 ± 11.32 Hz | single-channel open probability (Po) (human TRPV3; [1]): 0.72 ± 0.05 | unitary conductance of TRPV3 single channels (human TRPV3; inside-out patches, -80 mV to +80 mV, carvacrol 300 μM, 2-APB 50 μM, n = 4): 182.0 ± 6.4 pS | EC50 (TRPV3-I505A): 3.51 ± 0.44 mM | right shift of channel activation versus WT TRPV3 (TRPV3-I505A; I505A versus WT): over 10 fold | activation of TRPV3 L508V mutant channel (TRPV3-L508V): retain the channel activation
SMILES: Cc1ccc(C(C)C)cc1O [carvacrol, 5-Isopropyl-2-methylphenol]
activation of TRPV3 I505A mutant channel (TRPV3-I505A; carvacrol 0.3-3.0 mM or 50 μM 2-APB): weak activation of TRPV3 I505A at high concentration of 3 mM | pruritus on pharmacological activation of TRPV3 (mice): induces pruritus
